According to patent US20200393377A1, “Microscopy for Rapid Antibiotic Susceptibility Test Using Membrane Fluorescence Staining and Spectral Intensity Ratio” (POCARED Diagnostics LTD., priority 2019, published 2020):

Key:
E. coli [1] = assay: Rapid AST/MIC by membrane fluorescence staining, SIR from IN Cell confocal imaging; assay type: cell-based; conditions: InCell measurement; SIR (610 nm/530 nm) vs antibiotic concentration, step function fit; 2-4 hours antibiotic exposure at 37° C.; Synaptogreen/FM 1-43 dye
Description: In general, the method includes blood culture centrifugation, bacterial antimicrobial exposure for 2 to 4 hours, bacteria staining with a single fluorescence dye followed by laser confocal microscopy, and mathematical analysis.
Sample Preparation—Macro Dilution Method • a) Antimicrobial (Gentamicin) stock solutions were prepared according to CLSI recommendations, and were diluted in CAMHB, to a concentration which was 2 fold higher from the highest concentration recommended for each antimicrobial combination (“Class II Special Controls Guidance Document: Antimicrobial Susceptibility Test (AST) Systems”, Aug. […] The images were taken through a green filter (530 nm) and red filter (615 nm) one after the other for each image. • i) images were analyzed using GE In Cell Investigator image analysis software. For each image the following operation were performed; segmentation for identifying the bacteria, for each bacteria the intensity in the green and […] were recorded, and a scatter plot of the bacteria population was plotted (x axis—intensity in the green, y axis—intensity in the red).
To quantify the influence of a certain antimicrobial exposure we define the spectral intensity ratio (SIR) as follows: […]
The MIC is calculated by plotting the spectral intensity ratio (SIR) as a function of the antimicrobial concentration and approximating it to a step function in the form of […]

E. coli [2] = assay: MIC by SIR from flow cytometer measurement; assay type: cell-based; conditions: SIR vs antibiotic concentration
Description: The MIC is calculated by plotting the spectral intensity ratio (SIR) as a function of the antimicrobial concentration and approximating it to a step function in the form of
Where a, b, and c are parameters and erf is the error function. The parameters are used to approximate the measured SIR to a step function; a is a scaling parameter, b determines the step slope, and c is the MIC value, or a function of it. The SIR values are used to determine the erf parameters by a best fit approximation.
We measured E. coli exposed to gentamicin at 4 concentration. The MIC was calculated using the spectral intensity ratio (SIR) calculation and step function estimation using MATLAB software.
FIG. 3 provides plots showing the SIR as a function of the antibiotic concentration for the InCell measurement (top) and flow cytometer measurement (bottom). As can been seen from the graphs, their shapes are similar, although the InCell measurement has less data points, and the MIC is 0.5 μg/ml in both cases. Live bacteria population (0 μg/ml) have lower SIR then the dead ones (>0.5 μg/ml). At the MIC (0.5 ug/ml) there is a large increase in the SIR. […] The SIR then decreases at very high (>4 ug/ml) antibiotic concentrations.

Substance: gentamicin
- MIC (E. coli [1]): 0.5 µg/mL
- MIC (E. coli [2]): 0.5 µg/mL
